Experimental data published in patent US12065442B2, “Tropomyosin receptor kinase (TRK) degradation compounds and methods of use” (Cullgen (Shanghai), Inc., priority 2018, dated 2024).

tested on: KM12 cells; assay: Cell viability assay (CellTiter-Glo) in KM12 cells; format: cell-based; conditions: Homo sapiens, 72 h; Table 3; KM12 cell viability, CellTiter-Glo, 3 days; read-out: IC50

| SMILES | IC50 |
| --- | --- |
| O=C(CN1CCN(c2cccc(-c3cnc4ccc(N5CCC[C@@H]5c5cccc(F)c5)nn34)n2)CC1)NCCCCCCCNc1ccc2c(c1)C(=O)N(C1CCC(=O)NC1=O)C2=O (stereo partly drawn) [TR-126, N-(7-((2-(2,6-dioxopiperidin-3-yl)-1,3-dioxoisoindolin-5-yl)amino)heptyl)-2-(4-(6-(6-((R)-2-(3-fluorophenyl)pyrrolidin-1-yl)imidazo[1,2-b]pyridazin-3-yl)pyridin-2-yl)piperazin-1-yl)acetamide] | 12.5 nM |
| O=C(CN1CCN(c2cccc(-c3cnc4ccc(N5CCC[C@@H]5c5cccc(F)c5)nn34)n2)CC1)NCCCNc1ccc2c(c1)C(=O)N(C1CCC(=O)NC1=O)C2=O (stereo partly drawn) [TR-127, N-(3-((2-(2,6-dioxopiperidin-3-yl)-1,3-dioxoisoindolin-5-yl)amino)propyl)-2-(4-(6-(6-((R)-2-(3-fluorophenyl)pyrrolidin-1-yl)imidazo[1,2-b]pyridazin-3-yl)pyridin-2-yl)piperazin-1-yl)acetamide] | 2.7 nM |
| O=C(CN1CCN(c2cccc(-c3cnc4ccc(N5CCC[C@@H]5c5cccc(F)c5)nn34)n2)CC1)NCCCCCCNc1ccc2c(c1)C(=O)N(C1CCC(=O)NC1=O)C2=O (stereo partly drawn) [TR-128, N-(6-((2-(2,6-dioxopiperidin-3-yl)-1,3-dioxoisoindolin-5-yl)amino)hexyl)-2-(4-(6-(6-((R)-2-(3-fluorophenyl)pyrrolidin-1-yl)imidazo[1,2-b]pyridazin-3-yl)pyridin-2-yl)piperazin-1-yl)acetamide] | 3.3 nM |
| O=C(CN1CCN(c2cccc(-c3cnc4ccc(N5CCC[C@@H]5c5cccc(F)c5)nn34)n2)CC1)NCCOCCOCCOCCNc1ccc2c(c1)C(=O)N(C1CCC(=O)NC1=O)C2=O (stereo partly drawn) [TR-129, N-(2-(2-(2-(2-((2-(2,6-dioxopiperidin-3-yl)-1,3-dioxoisoindolin-5-yl)amino)ethoxy)ethoxy)ethoxy)ethyl)-2-(4-(6-(6-((R)-2-(3-fluorophenyl)pyrrolidin-1-yl)imidazo[1,2-b]pyridazin-3-yl)pyridin-2-yl)piperazin-1-yl)acetamide] | 4.4 nM |
| O=C(CN1CCN(c2cccc(-c3cnc4ccc(N5CCC[C@@H]5c5cccc(F)c5)nn34)n2)CC1)NCCNc1ccc2c(c1)C(=O)N(C1CCC(=O)NC1=O)C2=O (stereo partly drawn) [TR-130, N-(2-((2-(2,6-dioxopiperidin-3-yl)-1,3-dioxoisoindolin-5-yl)amino)ethyl)-2-(4-(6-(6-((R)-2-(3-fluorophenyl)pyrrolidin-1-yl)imidazo[1,2-b]pyridazin-3-yl)pyridin-2-yl)piperazin-1-yl)acetamide] | 0.9 nM |
| O=C(CN1CCN(c2cccc(-c3cnc4ccc(N5CCC[C@@H]5c5cccc(F)c5)nn34)n2)CC1)NCCCCCNc1ccc2c(c1)C(=O)N(C1CCC(=O)NC1=O)C2=O (stereo partly drawn) [TR-131, N-(5-((2-(2,6-dioxopiperidin-3-yl)-1,3-dioxoisoindolin-5-yl)amino)pentyl)-2-(4-(6-(6-((R)-2-(3-fluorophenyl)pyrrolidin-1-yl)imidazo[1,2-b]pyridazin-3-yl)pyridin-2-yl)piperazin-1-yl)acetamide] | 2.7 nM |
| O=C(CN1CCN(c2cccc(-c3cnc4ccc(N5CCC[C@@H]5c5cccc(F)c5)nn34)n2)CC1)NCCOCCOCCOCCOCCOCCNc1ccc2c(c1)C(=O)N(C1CCC(=O)NC1=O)C2=O (stereo partly drawn) [TR-132, N-(17-((2-(2,6-dioxopiperidin-3-yl)-1,3-dioxoisoindolin-5-yl)amino)-3,6,9,12,15-pentaoxaheptadecyl)-2-(4-(6-(6-((R)-2-(3-fluorophenyl)pyrrolidin-1-yl)imidazo[1,2-b]pyridazin-3-yl)pyridin-2-yl)piperazin-1-yl)acetamide] | 4.4 nM |
| O=C(CN1CCN(c2cccc(-c3cnc4ccc(N5CCC[C@@H]5c5cccc(F)c5)nn34)n2)CC1)NCCCCCCCCNc1ccc2c(c1)C(=O)N(C1CCC(=O)NC1=O)C2=O (stereo partly drawn) [TR-133, N-(8-((2-(2,6-dioxopiperidin-3-yl)-1,3-dioxoisoindolin-5-yl)amino)octyl)-2-(4-(6-(6-((R)-2-(3-fluorophenyl)pyrrolidin-1-yl)imidazo[1,2-b]pyridazin-3-yl)pyridin-2-yl)piperazin-1-yl)acetamide] | 22.8 nM |
| O=C(CN1CCN(c2cccc(-c3cnc4ccc(N5CCC[C@@H]5c5cccc(F)c5)nn34)n2)CC1)NCCOCCOCCNc1ccc2c(c1)C(=O)N(C1CCC(=O)NC1=O)C2=O (stereo partly drawn) [TR-134, N-(2-(2-(2-((2-(2,6-dioxopiperidin-3-yl)-1,3-dioxoisoindolin-5-yl)amino)ethoxy)ethoxy)ethyl)-2-(4-(6-(6-((R)-2-(3-fluorophenyl)pyrrolidin-1-yl)imidazo[1,2-b]pyridazin-3-yl)pyridin-2-yl)piperazin-1-yl)acetamide] | 5.6 nM |
| O=C(CN1CCN(c2cccc(-c3cnc4ccc(N5CCC[C@@H]5c5cccc(F)c5)nn34)n2)CC1)NCCOCCNc1ccc2c(c1)C(=O)N(C1CCC(=O)NC1=O)C2=O (stereo partly drawn) [TR-135, N-(2-(2-((2-(2,6-dioxopiperidin-3-yl)-1,3-dioxoisoindolin-5-yl)amino)ethoxy)ethyl)-2-(4-(6-(6-((R)-2-(3-fluorophenyl)pyrrolidin-1-yl)imidazo[1,2-b]pyridazin-3-yl)pyridin-2-yl)piperazin-1-yl)acetamide] | 0.9 nM |
| O=C1CCC(N2C(=O)c3ccc(NCCCCCCCC(=O)N4CCN(c5ccc(C(=O)Nc6n[nH]c7ccc(Cc8cc(F)cc(F)c8)cc67)c(NC6CCOCC6)c5)CC4)cc3C2=O)C(=O)N1 (centres unmarked) [TR-136, N-(5-(3,5-Difluorobenzyl)-1H-indazol-3-yl)-4-(4-(8-((2-(2,6-dioxopiperidin-3-yl)-1,3-dioxoisoindolin-5-yl)amino)octanoyl)piperazin-1-yl)-2-((tetrahydro-2H-pyran-4-yl)amino)benzamide] | 23.6 nM |
| O=C1CCC(N2C(=O)c3ccc(NCCOCCOCCOCCOCCOCCC(=O)N4CCN(c5ccc(C(=O)Nc6n[nH]c7ccc(Cc8cc(F)cc(F)c8)cc67)c(NC6CCOCC6)c5)CC4)cc3C2=O)C(=O)N1 (centres unmarked) [TR-137, N-(5-(3,5-Difluorobenzyl)-1H-indazol-3-yl)-4-(4-(1-((2-(2,6-dioxopiperidin-3-yl)-1,3-dioxoisoindolin-5-yl)amino)-3,6,9,12,15-pentaoxaoctadecan-18-oyl)piperazin-1-yl)-2-((tetrahydro-2H-pyran-4-yl)amino)benzamide] | 2.5 nM |
| O=C1CCC(N2C(=O)c3ccc(NCCCCCC(=O)N4CCN(c5ccc(C(=O)Nc6n[nH]c7ccc(Cc8cc(F)cc(F)c8)cc67)c(NC6CCOCC6)c5)CC4)cc3C2=O)C(=O)N1 (centres unmarked) [TR-138, N-(5-(3,5-Difluorobenzyl)-1H-indazol-3-yl)-4-(4-(6-((2-(2,6-dioxopiperidin-3-yl)-1,3-dioxoisoindolin-5-yl)amino)hexanoyl)piperazin-1-yl)-2-((tetrahydro-2H-pyran-4-yl)amino)benzamide] | 31.1 nM |
| O=C1CCC(N2C(=O)c3ccc(NCCCCCCC(=O)N4CCN(c5ccc(C(=O)Nc6n[nH]c7ccc(Cc8cc(F)cc(F)c8)cc67)c(NC6CCOCC6)c5)CC4)cc3C2=O)C(=O)N1 (centres unmarked) [TR-139, N-(5-(3,5-Difluorobenzyl)-1H-indazol-3-yl)-4-(4-(7-((2-(2,6-dioxopiperidin-3-yl)-1,3-dioxoisoindolin-5-yl)amino)heptanoyl)piperazin-1-yl)-2-((tetrahydro-2H-pyran-4-yl)amino)benzamide] | 27.1 nM |
| O=C1CCC(N2C(=O)c3ccc(NCCOCCOCCOCCOCCC(=O)N4CCN(c5ccc(C(=O)Nc6n[nH]c7ccc(Cc8cc(F)cc(F)c8)cc67)c(NC6CCOCC6)c5)CC4)cc3C2=O)C(=O)N1 (centres unmarked) [TR-140, N-(5-(3,5-Difluorobenzyl)-1H-indazol-3-yl)-4-(4-(1-((2-(2,6-dioxopiperidin-3-yl)-1,3-dioxoisoindolin-5-yl)amino)-3,6,9,12-tetraoxapentadecan-15-oyl)piperazin-1-yl)-2-((tetrahydro-2H-pyran-4-yl)amino)benzamide] | 1.6 nM |
| O=C1CCC(N2C(=O)c3ccc(NCCOCCOCCC(=O)N4CCN(c5ccc(C(=O)Nc6n[nH]c7ccc(Cc8cc(F)cc(F)c8)cc67)c(NC6CCOCC6)c5)CC4)cc3C2=O)C(=O)N1 (centres unmarked) [TR-141, N-(5-(3,5-Difluorobenzyl)-1H-indazol-3-yl)-4-(4-(3-(2-(2-((2-(2,6-dioxopiperidin-3-yl)-1,3-dioxoisoindolin-5-yl)amino)ethoxy)ethoxy)propanoyl)piperazin-1-yl)-2-((tetrahydro-2H-pyran-4-yl)amino)benzamide] | 2.6 nM |
| O=C1CCC(N2C(=O)c3ccc(NCCCCC(=O)N4CCN(c5ccc(C(=O)Nc6n[nH]c7ccc(Cc8cc(F)cc(F)c8)cc67)c(NC6CCOCC6)c5)CC4)cc3C2=O)C(=O)N1 (centres unmarked) [TR-142, N-(5-(3,5-Difluorobenzyl)-1H-indazol-3-yl)-4-(4-(5-((2-(2,6-dioxopiperidin-3-yl)-1,3-dioxoisoindolin-5-yl)amino)pentanoyl)piperazin-1-yl)-2-((tetrahydro-2H-pyran-4-yl)amino)benzamide] | 3.4 nM |
| O=C1CCC(N2C(=O)c3ccc(NCCOCCC(=O)N4CCN(c5ccc(C(=O)Nc6n[nH]c7ccc(Cc8cc(F)cc(F)c8)cc67)c(NC6CCOCC6)c5)CC4)cc3C2=O)C(=O)N1 (centres unmarked) [TR-143] | 5.6 nM |
| O=C1CCC(N2C(=O)c3ccc(NCC(=O)N4CCN(c5ccc(C(=O)Nc6n[nH]c7ccc(Cc8cc(F)cc(F)c8)cc67)c(NC6CCOCC6)c5)CC4)cc3C2=O)C(=O)N1 (centres unmarked) [TR-144, N-(5-(3,5-Difluorobenzyl)-1H-indazol-3-yl)-4-(4-((2-(2,6-dioxopiperidin-3-yl)-1,3-dioxoisoindolin-5-yl)glycyl)piperazin-1-yl)-2-((tetrahydro-2H-pyran-4-yl)amino)benzamide] | 2.2 nM |
| O=C1CCC(N2C(=O)c3ccc(NCCC(=O)N4CCN(c5ccc(C(=O)Nc6n[nH]c7ccc(Cc8cc(F)cc(F)c8)cc67)c(NC6CCOCC6)c5)CC4)cc3C2=O)C(=O)N1 (centres unmarked) [TR-145, N-(5-(3,5-Difluorobenzyl)-1H-indazol-3-yl)-4-(4-(3-((2-(2,6-dioxopiperidin-3-yl)-1,3-dioxoisoindolin-5-yl)amino)propanoyl)piperazin-1-yl)-2-((tetrahydro-2H-pyran-4-yl)amino)benzamide] | 3.1 nM |
